The series in a line: logP determined by HPLC. It is filed as physicochemical.
Where [1] appears, read: preparation examples, where two values are given they are the stereoisomers of the product mixture, read-out: HPLC: logP.
Setting [2] is: preparation examples, where two values are given they are the stereoisomers of the product mixture.

The structures appear in SMILES notation. Read-outs that look alike come from different tables or passages of the source.

In the case of `CON=C1COc2ccc(C)cc21` [(VI-2), 5-Methylbenzofuran-3-one O-methyl-oxime], under setting [1], the chromatographic logP amounted to 2.88. Turning to `CO/N=C(/C1=NOCCO1)c1ccccc1O` [Compound (I-1), E-(5,6-dihydro-[1,4,2]dioxazin-3-yl)-(2-hydroxy-phenyl)-methanone O-methyl-oxime], the chromatographic logP runs as follows: (E isomer, Example 2 product, read-out: HPLC: logP (E isomer)) 1.24; (HPLC, preparation examples, where two values are given they are the stereoisomers of the product mixture, read-out: HPLC: logP) 1.22. Take `CON=C1C(=NOCCO)Oc2ccccc21` [Compound (II-1), benzofuran-2,3-dione 2-[O-(2-hydroxy-ethyl)-oxime]3-(O-methyl-oxime)]: the “HPLC: logP” value under setting [2] is given as 1.79. Moreover, the chromatographic logP under setting [1] was determined as 1.65. The like results for `CON=C1C(=NO)Oc2ccccc21` [Compound (III-1), benzofuran-2,3-dione 3-(O-methyl-oxime) 2-oxime] were, in that order, 1.72 and 1.56.

Turning to `CON=C(C[N+](=O)[O-])c1ccccc1O` [Compound (V-1), 1-(2-hydroxyphenyl)-2-nitro-ethanone O-methyl-oxime], the chromatographic logP under setting [1] came out at 1.87.

Source of the values: patent US6437153B1, “Process for preparing 3-(1-hydroxyphenyl-1-alkoximinomethyl)dioxazines” (Bayer Aktiengesellschaft, priority 1996, dated 2002).
